One experiment has as its system MWCL-1. The experiment can be described thus: CellTiter-Glo Luminescent cell viability assay, MWCL-1. In kind it is cell-based. The conditions noted are these: MWCL-1 cell line, 72 hours at 37° C., read-out: ED50 (the source's name). On the procedure:
(§1) The CellTiter-Glo® Luminescent cell viability assay (Promega, Madison WI) was used to assess the dose-response of inhibitors alone or in combination. Cells were seeded into 384 well plates with the EL406 Combination Washer Dispenser (BioTek Instruments, Inc.) and inhibitors were injected into culture media with the JANUS Automated Workstation (PerkinElmer Inc., Waltham MA). Cells were incubated with inhibitors for 72 hours at 37° C. Luminescent measurements to assess cell viability were performed using the 2104 Envision® Multilabel Reader (PerkinElmer Inc.). Drug interactions were assessed by CalcuSyn 2.0 software (Biosoft, Cambridge UK) based on Chou TC.

The next experiment relates to BCWM.1. The experiment can be described thus: CellTiter-Glo Luminescent cell viability assay, BCWM.1. The following applies: BCWM1, BCWM.1 cell line, 72 hours at 37° C., read-out: ED50 (the source's name). In kind it is cell-based. On the procedure: as §1
A further experiment concerns OCI-Ly7. Briefly: CellTiter-Glo Luminescent cell viability assay, OCI-Ly7. The format is cell-based. The following applies: Homo sapiens, OCI-Ly7 cell line, 72 hours at 37° C., read-out: ED50 (the source's name). On the procedure: as §1
The next experiment has as its system HBL-1. The experiment can be described thus: CellTiter-Glo Luminescent cell viability assay, HBL-1. The format is cell-based. The following applies: HBL1, HBL-1 cell line, 72 hours at 37° C., read-out: ED50 (the source's name). On the procedure:
as §1

Another experiment concerns SU-DHL-6. The experiment can be described thus: CellTiter-Glo Luminescent cell viability assay, SU-DHL-6. The following applies: Homo sapiens, SU-DHL-6 cell line, 72 hours at 37° C., read-out: ED50 (the source's name). The format is cell-based. Here is the method: as §1
The next experiment relates to TMD8. The experiment can be described thus: CellTiter-Glo Luminescent cell viability assay, TMD8. The following applies: Homo sapiens, TMD8 cell line, 72 hours at 37° C., read-out: ED50 (the source's name). The format is cell-based. On the procedure:
as §1

In another experiment the test system is JeKo-1. Briefly: CellTiter-Glo Luminescent cell viability assay, JeKo-1. The following applies: Homo sapiens, JeKo-1 cell line, 72 hours at 37° C., read-out: ED50 (the source's name). The format is cell-based. On the procedure:
as §1

For another experiment, the system named is RPMI-8226. The experiment can be described thus: CellTiter-Glo Luminescent cell viability assay, RPMI-8226. In kind it is cell-based. The conditions noted are these: Homo sapiens, RPMI-8226 cell line, 72 hours at 37° C., read-out: ED50 (the source's name). Here is the method:
as §1

A further experiment deals with OCI-Ly19. Briefly: CellTiter-Glo Luminescent cell viability assay, OCI-Ly19. The conditions noted are these: Homo sapiens, OCI-Ly19 cell line, 72 hours at 37° C., read-out: ED50 (the source's name). In kind it is cell-based. On the procedure: as §1
For another experiment, the system named is Ramos. Briefly: CellTiter-Glo Luminescent cell viability assay, Ramos. The format is cell-based. The conditions noted are these: Homo sapiens, Ramos cell line, 72 hours at 37° C., read-out: ED50 (the source's name). On the procedure:
as §1

A further experiment relates to multiple cell lines. The experiment can be described thus: Cellular IRAK4 inhibitory activity screened across multiple cell lines. The format is cell-based. On the procedure: as §1, with “TC. Cellular IRAK4 inhibitory activities of compound 015 and two commercial IRAK4 inhibitors, CA-4948 and PF06650833, were screened across multiple cell lines.” for “TC.”
The target in another experiment is T1, IRAK1 (Homo sapiens, UniProt P51617).
T1 construct: purchased ThermoFisher
T1 sequence (P51617 whole entry): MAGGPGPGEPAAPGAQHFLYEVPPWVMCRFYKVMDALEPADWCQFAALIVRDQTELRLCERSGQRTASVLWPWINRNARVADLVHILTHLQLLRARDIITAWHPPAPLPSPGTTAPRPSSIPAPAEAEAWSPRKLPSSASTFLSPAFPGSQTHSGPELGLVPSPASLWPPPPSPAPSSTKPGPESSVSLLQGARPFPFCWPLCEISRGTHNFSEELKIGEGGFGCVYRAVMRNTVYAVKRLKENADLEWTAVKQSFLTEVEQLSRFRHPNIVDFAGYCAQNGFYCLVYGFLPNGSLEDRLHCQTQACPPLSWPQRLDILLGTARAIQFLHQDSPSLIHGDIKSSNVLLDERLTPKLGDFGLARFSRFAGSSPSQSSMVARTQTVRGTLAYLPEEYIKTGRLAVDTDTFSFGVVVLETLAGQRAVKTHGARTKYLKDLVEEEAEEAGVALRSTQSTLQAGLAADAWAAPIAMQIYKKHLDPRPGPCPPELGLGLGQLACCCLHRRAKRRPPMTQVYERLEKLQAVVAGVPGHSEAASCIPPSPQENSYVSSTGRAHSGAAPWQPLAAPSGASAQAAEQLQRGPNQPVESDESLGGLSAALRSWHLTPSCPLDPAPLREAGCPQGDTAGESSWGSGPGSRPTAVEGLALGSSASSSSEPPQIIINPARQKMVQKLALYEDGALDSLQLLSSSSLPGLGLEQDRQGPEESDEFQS
Briefly: IRAK1 enzymatic assay (Adapta Universal Kinase Assay, ThermoFisher). In kind it is biochemical. The conditions noted are these: 60 minutes at room temperature. On the procedure: To measure the IC50 values of the compounds herein against IRAK1, the Adapta Universal Kinase Assay (ThermoFisher) was used. Briefly, 100 nL of different concentrations of the compounds in 100% DMSO were added to each well of a 384-well plate (Corning Cat. #4512). 2.4 μL of 30 mM HEPES, 2.5 μL of 4×ATP solution (in water), and 5 μL of 2×IRAK1/Histone H3 (1-20) peptide mixture (prepared in 50 mM HEPES pH 7.5, 0.01% BRIJ-35, 10 mM MgCl2, 1 mM EGTA) were added to each well. The plate was shaken for 30 seconds and centrifuged for 1 minute at 1000×g. The plate was then incubated at room temperature for 60 minutes. 5 μL of Detection Mix was added to each well. The plate was shaken for 30 seconds and centrifuged for 1 minute at 1000×g. The plate was then incubated at room temperature for 60 minutes. The plate was subsequently read on a fluorescence plate reader, and the emissions ratio was calculated to determine the ratio of ATP to ADP. Emissions Ratio=AF647 Emission (665 nm)/Europium Emission (615 nm).

In a further experiment the target is T2, IRAK4 (Homo sapiens, UniProt Q9NWZ3).
T2 construct: purchased ThermoFisher
T2 sequence (Q9NWZ3 1-460): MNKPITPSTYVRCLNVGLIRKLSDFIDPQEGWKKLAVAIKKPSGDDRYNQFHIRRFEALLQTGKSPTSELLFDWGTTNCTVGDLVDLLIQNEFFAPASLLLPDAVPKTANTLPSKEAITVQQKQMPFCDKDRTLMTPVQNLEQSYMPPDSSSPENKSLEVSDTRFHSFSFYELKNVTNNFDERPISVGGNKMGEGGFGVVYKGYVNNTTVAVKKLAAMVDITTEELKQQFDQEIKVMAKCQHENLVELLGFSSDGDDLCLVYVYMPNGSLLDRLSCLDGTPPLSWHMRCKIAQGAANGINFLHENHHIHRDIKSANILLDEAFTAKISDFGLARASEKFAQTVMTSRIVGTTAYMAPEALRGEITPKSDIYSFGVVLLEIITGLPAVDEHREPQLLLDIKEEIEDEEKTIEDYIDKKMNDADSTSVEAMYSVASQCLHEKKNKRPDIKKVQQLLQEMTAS
The experiment can be described thus: IRAK4 enzymatic assay (Z'-LYTE, ThermoFisher). The format is biochemical. The conditions noted are these: 60 minutes at room temperature. On the procedure: To measure the IC50 values of compounds herein against IRAK4, a Z′-LYTE assay (ThermoFisher) was used. Briefly, 2.5 μL of different concentrations of the compounds in 1% DMSO were added to 2.4 μL kinase buffer (50 mM HEPES pH 7.5, 0.01% BRIJ-35, 10 mM MgCl2, 1 mM EGTA) in each well of a 384-well plate (Corning Cat. #3676). 5 μL of 2×IRAK4/Ser/Thr 07 mixture (prepared in 50 mM HEPES pH 7.5, 0.01% BRIJ-35, 10 mM MnCl2, 2 mM DTT, and 0.02% NaN3) and 2.5 μL of 4×ATP solution (4×ATP, 50 mM HEPES, pH 7.5, 0.01% BRIJ-35, 10 mM MgCl2, 1 mM EGTA) were added to each well. The plate was shaken for 30 seconds, and then incubated at room temperature for 60 minutes. 5 μL of a 1:100000 dilution of Development Reagent A was added to each well. The plate was shaken for 30 seconds and incubated for 60 minutes at room temperature. The plate was subsequently read on a fluorescence plate reader, and the emissions ratio was calculated to determine the ratio of Ser/Thr 07 phosphorylated by the reaction. Emissions Ratio=Coumarin Emission (443 nm)/Flourescein Emission (520 nm).

In the case of `Cc1cc(-c2nc(C(=O)Nc3cc4oc(N5CCOCC5)nc4nc3N3CC[C@@H](O)C3)co2)ccn1` [CA-4948], the EC50 in the experiment with MWCL-1 was determined as 11.9 µM; in the experiment with BCWM.1, 1.99 µM; with OCI-Ly7 it was 13 µM; in the experiment with HBL-1, 11.1 µM; in the experiment with SU-DHL-6, 8.69 µM; in the experiment with TMD8 it was 9.37 µM. The results for the EC50 in the experiment with JeKo-1, in the experiment with RPMI-8226 and in the experiment with OCI-Ly19 were 6.57 µM, 14 µM and 2.2 µM, respectively.
As to `Cc1ccc(-n2nc(C3CCN(C(C)C)CC3)cc2NC(=O)c2cccc(-c3cnn(CC(N)=O)c3)n2)nc1` [Compound 015, 6-(1-(2-amino-2-oxoethyl)-1H-pyrazol-4-yl)-N-(3-(1-isopropylpiperidin-4-yl)-1-(5-methylpyridin-2-yl)-1H-pyrazol-5-yl)picolinamide], the EC50 with MWCL-1 worked out at 6.92 µM; in the experiment with BCWM.1, 3.33 µM; in the experiment on Ramos, 0.362 µM; with OCI-Ly7 it was 3.11 µM; in the experiment with HBL-1 it was 2.2 µM; in the experiment with SU-DHL-6, 1.72 µM. Moreover, the EC50 is 3.92 µM in the experiment on TMD8, 6.26 µM in the experiment on JeKo-1, 6.78 µM in the experiment on RPMI-8226 and 1.22 µM in the experiment with OCI-Ly19. Besides, the “Potency compared with CA-4948 and PF06650833” value in the experiment on multiple cell lines is “more potent in most cell lines”. Also, the results for the IC50 against IRAK1 and against IRAK4 were 0.45 µM and 0.009 µM, respectively.
For the compound `CC[C@@H]1[C@H](F)C(=O)N[C@@H]1COc1nccc2cc(C(N)=O)c(OC)cc12` [PF06650833], the EC50 in the experiment with MWCL-1 is 18.3 µM; with BCWM.1 it was 11 µM; in the experiment with Ramos it was 28.7 µM; with OCI-Ly7, 9.8 µM; in the experiment with HBL-1, 14.8 µM; with TMD8, 24.1 µM. Also, the EC50 in the experiment on RPMI-8226 stood at 80.5 µM; in the experiment with OCI-Ly19, 5.87 µM.

The values above are taken from patent US20240391899A1, “POTENT AND SELECTIVE INHIBITORS OF IRAK4” (Dana-Farber Cancer Institute, Inc., priority 2021, published 2024).
